From patent US12729377B2, “RNAi agents and compositions for inhibiting expression of angiopoietin-like 3 (ANGPTL3), and methods of use” (Arrowhead Pharmaceuticals, Inc., priority 2017, dated 2026)
In the oligonucleotide strings, read from the 5' end, every base follows the letter of its sugar. An asterisk marks phosphorothioate; unmarked linkages are phosphodiester. Other units and linkages are bracketed, terminal groups are in braces. A string of capitals states the bases alone. {NAG37} = tridentate N-acetyl-galactosamine targeting ligand, structure (NAG37)s; [invAb] = inverted abasic unit; m = 2'-O-methyl; f = 2'-fluoro

How the values were obtained:
ANGPTL3 protein = assay: Example 6: serum ANGPTL3 protein by ELISA in mice; format: in vivo, C57bl/6 mice; details: for Avg ANGPTL3, normalized to pre-treatment and control: 0.5 mg/kg single SC injection on day 1, serum, n=3
Protocol: To assess the in vivo activity of additional ANGPTL3 RNAi agents that are designed to target position 304 on the ANGPTL3 gene, six- to eight-week-old female C57bl/6 mice were used. Pre-dose serum samples were taken at day −1 after a four hour fast. At day 1, each mouse was given a single subcutaneous administration of 200 μl containing 0.5 mg/kg (mpk) of an ANGPTL3 RNAi agent in D5W (dextrose in 5% water), or control (D5W) with no RNAi agent, according to the dosing groups recited in Table 25.
Each of the RNAi agents included a modified sequence and an N-acetyl-galactosamine-containing targeting ligand conjugated to the 5′ terminal end of the sense strand. (See Tables 3, 4, and 5 for modified sequences and targeting ligand structures). The injections were performed between the skin and muscle (i.e. subcutaneous injections) into the loose skin over the neck and shoulder area. Three (3) mice in each group were tested (n=3). Serum was collected on days 8, 15, 22, 30, and on day 43 for certain groups (i.e., Groups 1, 2, 5, and 10 only). Mice were fasted for four hours prior to each collection. ANGPTL3 protein levels in serum were measured by ELISA assay (R&D Systems), according to the manufacturer's recommendations. Triglycerides, total cholesterol, high-density lipoprotein (HDL), and low-density lipoprotein (LDL) in serum were measured on a Cobas® Integra 400 (Roche Diagnostics), according to the manufacturer's recommendations.
The ANGPTL3 protein levels, triglyceride levels, total cholesterol levels, HDL levels, and LDL levels for each animal were normalized. For normalization, the level of ANGPTL3 protein, triglyceride, HDL, and total cholesterol, respectively, for each animal at a time point, was divided by the pre-treatment level of expression in that animal (in this case at day −1) to determine the ratio of expression “normalized to pre-treatment.” Expression at a specific time point was then normalized to the D5W control group by dividing the “normalized to pre-treatment” ratio for an individual animal by the mean “normalized to pretreatment” ratio of all mice in the D5W control group.

ANGPTL3 gene = assay: Example 12: serum LDL in LDLR knockout mice; format: in vivo, LDLR KO mice; details: 3.0 mg/kg sc day 1
From the text: To evaluate the effect of RNAi agent administration in a disease model, mice having a genetic mutation for the LDL receptor (referred to herein as LDLR KO mice) were commercially obtained (The Jackson Laboratory). The LDLR KO mice are homozygous for the Ldlr^tm1Her mutation, and have elevated serum cholesterol levels, particularly when placed on a high fat diet. For three weeks prior to the onset of the study, thirty-nine (39) LDLR KO mice were placed on a high fat diet (Teklad Custom Diets TD.88137). An additional eight (8) LDLR KO mice were placed on a normal chow diet over the same three-week period. Pre-dose serum samples were taken on day −15 and day −1 after a four hour fast. At day 1, each mouse was given a single subcutaneous administration of 200 μl/30 g animal body weight containing the respective mg/kg dose of an ANGPTL3 RNAi agent in D5W (dextrose in 5% water), control (D5W) with no RNAi agent, or a control RNAi agent that included a nucleotide sequence designed to target the Hepatitis B Virus (HBV) genome. A second injection of the same formulation was administered to the animals on day 29. The dosing regimen for the study is recited in the following Table 60:
Each mouse remained on its respective diet through the duration of study. The RNAi agent tested (AD05488) included a modified sequence and an N-acetyl-galactosamine-containing targeting ligand conjugated to the 5′ terminal end of the sense strand. (See Tables 3, […] modified sequences and targeting ligand structures). The injections were performed between the skin and muscle (i.e. subcutaneous injections) into the loose skin over the neck and shoulder area. Serum was collected on days 8, 15, 22, 29 (pre-second dose), 36, 43, 50, and 57. LDLR KO mice were fasted for four hours prior to each collection. On day 15, four (4) LDLR KO mice from Groups 1, 2, and 3 (i.e., the groups being administered the high fat “Western” diet) were sacrificed after serum collection, and on day 29, an additional four (4) LDLR KO mice from Groups 1, 2, and 3 were sacrificed after serum collection, for the purpose of performing mRNA assessments.
ANGPTL3 protein levels in serum were measured by ELISA assay (R&D Systems), according to the manufacturer's recommendations. Triglycerides, total cholesterol, high-density lipoprotein (HDL), and low-density lipoprotein (LDL) in serum were measured on a Cobas® Integra 400 (Roche Diagnostics), according to the manufacturer's recommendations.
The ANGPTL3 protein levels, triglyceride levels, total cholesterol levels, HDL levels, and LDL levels for each animal were normalized. For normalization, respective levels of ANGPTL3 protein, TG, total cholesterol, HDL, or LDL for each animal at a time point was divided by the average pre-treatment level of expression in that animal (in this case the average of day −15 and day −1) to determine the ratio of expression “normalized to pre-treatment.”
Expression at a specific time point was then normalized to the D5W control group that was administered the same diet (i.e., either the high fat “Western” diet or the normal chow-fed diet) by dividing the “normalized to pre-treatment” ratio for an individual animal by the mean “normalized to pretreatment” ratio of all mice in the D5W control group on the respective same diet, resulting in expression for each time point normalized to that in the control group.

## AD05488: RNAi agent duplex: antisense AM07235-AS, sense AM07234-SS (antisense mU*fA*mC*fUmGfAmUfCmAfAmAfUmAfUmGfUmUfGmAfG*mC; sense {NAG37}*[invAb]*mGmCmUmCmAmAmCmAfUfAfUmUmUmGmAmUmCmAmGmUmA*[invAb])
ANGPTL3 protein; Day 8
  Avg ANGPTL3, normalized to pre-treatment and control: 0.221
ANGPTL3 protein; Day 15
  Avg ANGPTL3, normalized to pre-treatment and control: 0.272
ANGPTL3 protein; Day 22
  Avg ANGPTL3, normalized to pre-treatment and control: 0.254
ANGPTL3 protein; Day 30
  Avg ANGPTL3, normalized to pre-treatment and control: 0.381
ANGPTL3 protein; Day 43
  Avg ANGPTL3, normalized to pre-treatment and control: 0.475
ANGPTL3 protein; through at least day 22, single 0.5 mg/kg subcutaneous, C57bl/6 mice
  reduction in ANGPTL3 protein levels: substantial reduction
ANGPTL3 gene; High Fat Diet, Day 8
  Avg LDL Normalized to Pre-Treatment and Control (Diet Matched): 0.547
ANGPTL3 gene; High Fat Diet, Day 15
  Avg LDL Normalized to Pre-Treatment and Control (Diet Matched): 0.476
ANGPTL3 gene; High Fat Diet, Day 22
  Avg LDL Normalized to Pre-Treatment and Control (Diet Matched): 0.429
ANGPTL3 gene; High Fat Diet, Day 29 (pre-second dose)
  Avg LDL Normalized to Pre-Treatment and Control (Diet Matched): 0.419
ANGPTL3 gene; Normal Diet, Day 8
  Avg LDL Normalized to Pre-Treatment and Control (Diet Matched): 0.558
ANGPTL3 gene; Normal Diet, Day 15
  Avg LDL Normalized to Pre-Treatment and Control (Diet Matched): 0.606
ANGPTL3 gene; Normal Diet, Day 22
  Avg LDL Normalized to Pre-Treatment and Control (Diet Matched): 0.662
ANGPTL3 gene; Normal Diet, Day 29 (pre-second dose)
  Avg LDL Normalized to Pre-Treatment and Control (Diet Matched): 0.563
